The values that follow are results of earlier work, collected in publication PMC7168327, “Designed Antimicrobial Peptides for Topical Treatment of Antibiotic Resistant Acne Vulgaris” (Antibiotics, 2020).

Holding throughout (conditions): cited from earlier work
The subject of series [1] is C. acnes ATCC11827. The text has this:
(§1) Table 1 Growth Inhibition of dAMPs (MICs, µg/mL) against C. acnes Isolates. | column: Antibiotic Sensitivity / Tetra ^#; Antibiotic Sensitivity / Ery ^#; Antibiotic Sensitivity / Clind ^#

Series [2] relates to C. acnes ATCC6919.
Text: as §1

Series [3] has as its system C. acnes HL007PA1.
Text: as §1

The test system of series [4] is C. acnes HL013PA1.
Text: as §1

In series [5] the test system is C. acnes HL038PA1.
Text: as §1

In series [6] the test system is C. acnes HL043PA1.
Text: as §1

In series [7] the test system is C. acnes HL043PA2.
Text: as §1

Series [8] deals with C. acnes HL045PA1.
Text: as §1

Series [9] has as its system C. acnes HL053PA1.
Text: as §1

For series [10], the system named is C. acnes HL056PA1.
Text: as §1

Series [11] concerns C. acnes HL072PA1.
Text: as §1

Series [12] has as its system C. acnes HL082PA2.
Text: as §1

For `CC[C@H]1OC(=O)[C@H](C)[C@@H](O[C@H]2C[C@@](C)(OC)[C@@H](O)[C@H](C)O2)[C@H](C)[C@@H](O[C@@H]2O[C@H](C)C[C@H](N(C)C)[C@H]2O)[C@](C)(O)C[C@@H](C)C(=O)[C@H](C)[C@@H](O)[C@]1(C)O` [Ery, erythromycin], the “Antibiotic Sensitivity, Ery” value in series [1] is recorded as “S (S, sensitive)”; in [2] it was “S (S, sensitive)”; in series [3] it was “R (erythromycin resistance MIC ≥ 0.5 μg/mL)”; in [4], “R (erythromycin resistance MIC ≥ 0.5 μg/mL)”; in [5], “R (erythromycin resistance MIC ≥ 0.5 μg/mL)”; in [6], “R (erythromycin resistance MIC ≥ 0.5 μg/mL)”. The “Antibiotic Sensitivity, Ery” value in series [7], in series [8], in series [9], in series [10], in [11] and in series [12] was “R (erythromycin resistance MIC ≥ 0.5 μg/mL)” each time.

Take `CN(C)[C@@H]1C(O)=C(C(N)=O)C(=O)[C@@]2(O)C(O)=C3C(=O)c4c(O)cccc4[C@@](C)(O)[C@H]3C[C@@H]12` [Tetra, tetracycline]: the “Antibiotic Sensitivity, Tetra” value in series [1] is on record as “S (S, sensitive)”; in series [2] it was “S (S, sensitive)”; in series [3], “R (resistance to tetracycline (Tetra), MIC ≥ 1.0 μg/mL)”; in series [4], “R (resistance to tetracycline (Tetra), MIC ≥ 1.0 μg/mL)”; in series [5], “R (resistance to tetracycline (Tetra), MIC ≥ 1.0 μg/mL)”; in series [6], “R (resistance to tetracycline (Tetra), MIC ≥ 1.0 μg/mL)”. Besides, the “Antibiotic Sensitivity, Tetra” value was “R (resistance to tetracycline (Tetra), MIC ≥ 1.0 μg/mL)” in series [7]; “R (resistance to tetracycline (Tetra), MIC ≥ 1.0 μg/mL)” in series [8]; “R (resistance to tetracycline (Tetra), MIC ≥ 1.0 μg/mL)” in [9]; “R (resistance to tetracycline (Tetra), MIC ≥ 1.0 μg/mL)” in series [10]; “R (resistance to tetracycline (Tetra), MIC ≥ 1.0 μg/mL)” in series [11]; “R (resistance to tetracycline (Tetra), MIC ≥ 1.0 μg/mL)” in [12].
